Common to all, as to assay: inhibition of tumour cell growth, NCI panel, 48 h
The subject of assay [1] is 786-0 renal.
The subject of assay [2] is BT-549 breast.
In assay [3] the test system is EKVX NSCLC.
Assay [4] concerns HCT-116 colon.
In assay [5] the test system is HL-60(TB) leukemia.
In assay [6] the test system is HT29 colon.
Assay [7] relates to MCF7 breast.
Assay [8] relates to NCI-H23 lung.
Assay [9] concerns OVCAR-3 ovarian.
Assay [10] relates to OVCAR-4 ovarian.
The test system of assay [11] is OVCAR-8 ovarian.
Assay [12] deals with RPMI-8226 leukemia.
The subject of assay [13] is SF-268 CNS.
The test system of assay [14] is SNB-19 CNS.
In assay [15] the test system is U251 CNS.
For assay [16], the system named is UACC-62 melanoma.

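Values below derive from 48-hour exposures of cells grown in 96-well plates, with endpoints linearly interpolated between the two concentrations bracketing the appropriate inhibition level. TGI: total growth inhibition.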

`NCCSCCC(=O)O`: the TGI in assay [1], in assay [2], in [3], in [4], in assay [5] and in assay [6] was over 100 µM in each case. Moreover, the TGI in [7] is over 100 µM; in [8] it was over 62.7 µM; in assay [9], over 100 µM; in [10], over 100 µM; in assay [11], over 100 µM; in [12], over 92.3 µM. The TGI is over 100 µM in [13], over 100 µM in assay [14], over 67.4 µM in [15] and over 70.9 µM in assay [16].

As to `COC1=CC(=O)N(C)C(O)C1(C#N)OC1OC(CO)C(O)C(O)C1O` (centres undefined), the TGI in [1] was over 100 µM; in [2] it was over 100 µM; in [3], over 100 µM; in assay [4], over 100 µM; in assay [5], over 100 µM; in assay [6], over 10 µM. For the same compound, the TGI in [7], in assay [8], in assay [9], in assay [10], in assay [11] and in assay [12] was over 100 µM throughout. The TGI in [13], in assay [14], in assay [15] and in [16] was over 100 µM throughout.

As for `NC(=S)NC/C=C/Cl`, the TGI in assay [1], in assay [2], in assay [3], in [4], in assay [5] and in assay [6] was over 100 µM in each case. Also, the TGI in assay [7], in assay [8], in [9], in [10], in assay [11] and in assay [12] was over 100 µM each time. Further, the TGI in assay [14] and in assay [16] was over 100 µM throughout.

As for `Oc1ccc(-c2nc3ccccc3s2)cc1`, the TGI in assay [1] was over 100 µM; in assay [2] it was over 100 µM; in assay [3], over 100 µM; in [4], 74.9 µM; in [5] it was over 100 µM; in assay [6] it was over 100 µM. In addition, the TGI in [7] was over 100 µM; in assay [8], 79.1 µM; in assay [9], over 100 µM; in assay [10], over 100 µM; in assay [11] it was over 100 µM; in [12], over 100 µM. Moreover, the TGI is 90.2 µM in assay [13], over 100 µM in assay [14], over 100 µM in assay [15] and over 100 µM in [16].

Take `Cc1ccccc1NC(=O)CC(=O)NNC(Sc1ccccc1)c1cc(N=Nc2ccc(Br)cc2)ccc1O` (centres undefined): the TGI was over 10 µM in assay [1]; over 10 µM in assay [2]; over 10 µM in [3]; 1.19 µM in assay [4]; 0.907 µM in assay [5]; over 10 µM in assay [6]. Moreover, the TGI in [7] is over 10 µM; in assay [8] it was over 10 µM; in assay [9] it was 4.91 µM; in assay [10], over 10 µM; in assay [11] it was 2.12 µM; in assay [12] it was 9.06 µM. The TGI in assay [13] was over 10 µM; in [14] it was over 10 µM; in [15] it was over 10 µM; in [16] it was 8.65 µM.

With `O=[Se](O)O`, the TGI in [1] was 7.35 µM; in assay [2] it was 39 µM; in assay [3], 15.7 µM; in assay [4] it was 15.6 µM; in [5] it was over 100 µM; in assay [6], over 91.8 µM. The TGI in assay [7] was over 100 µM; in assay [8], over 94.4 µM; in [9] it was 10.7 µM; in [10], 21.1 µM; in assay [11], 8.83 µM; in assay [12], over 100 µM. For the same compound, the TGI in assay [13] is 4.94 µM; in [14] it was over 22 µM; in assay [15], 2.82 µM; in assay [16], 4.66 µM.

Take `CN(C)CC1CCC(CN(C)C)C(=O)C1=O` (centres undefined): the TGI in assay [1] came to 29.7 µM; in assay [2] it was 20.9 µM; in assay [3], 47.2 µM; in [4], 7.55 µM; in [5], 7.17 µM; in assay [6] it was 16.5 µM. Besides, the TGI in assay [7] stood at 8.6 µM; in [8], 22.1 µM; in assay [9], 5.32 µM; in [10], 18.3 µM; in assay [11], 9.08 µM; in [12], 18.1 µM. The TGI came out at 10.9 µM in assay [13], 29.9 µM in assay [14], 26.7 µM in [15] and 31.3 µM in assay [16].

With `Cc1cc(S(=O)(=O)/N=C(/NN)Nc2ccc(Cl)cc2)c(S)cc1Cl`, the TGI was determined as 45.6 µM in assay [1]; 34.6 µM in assay [2]; 29.3 µM in assay [3]; 20 µM in assay [4]; 63.8 µM in assay [5]; 49.2 µM in assay [6]. Also, the TGI in assay [7] is 52 µM; in assay [9], 82.2 µM; in assay [10], 62.8 µM; in [11], 27.3 µM; in [12], over 100 µM; in assay [13] it was 61.8 µM. The values for the TGI in assay [14], in assay [15] and in [16] were 25.3 µM, 21.7 µM and 27.4 µM, respectively.

As to `O=C(OCc1ccccc1)N1CCNCCNCCN(C(=O)OCc2ccccc2)CCNCC1`, the TGI was 28.4 µM in [1]; over 100 µM in assay [2]; 65.1 µM in assay [3]; 29.1 µM in assay [4]; 21.7 µM in assay [5]; 32.9 µM in assay [6]. Besides, the TGI in assay [7] was 32 µM; in assay [9], over 100 µM; in assay [10], over 100 µM; in [11], 32.8 µM; in assay [12], 50.8 µM; in [14], over 100 µM. Moreover, the figures for the TGI in assay [15] and in assay [16] were 33.7 µM and 31.7 µM, respectively.
